Drawing on patent US11597727B2 (THE REGENTS OF THE UNIVERSITY OF CALIFORNIA, priority 2018, dated 2023), this text covers IC50 for 37 compounds.

The target of this experiment is integrin α2β1 (Homo sapiens, UniProt P05556+P17301). The experiment can be described thus: HT 1080 cell adhesion assay on rat tail collagen I. The following applies: HT1080 (human fibrosarcoma) cells on rat tail collagen I, absorbance at 595 nm, triplicate; read-out: IC50s from HT 1080 Cell adhesion assay. It is filed as cell-based. Set-up: HT1080 (human fibrosarcoma) cells (or human airway smooth muscle cells) were detached and resuspended in serum-free DMEM; endogenous in cells; host or cells: HT1080 human fibrosarcoma cells. On the procedure: Cell adhesion Assay: Ninety-six-well flat-bottomed tissue culture plates were coated with rat tail collagen I for 1 hour at 37° C. After incubation, wells were blocked with 1% BSA at 37° C. for 1 hour. Control wells were filled with 1% BSA. HT1080 (human fibrosarcoma) cells (or human airway smooth muscle cells) were detached and resuspended in serum-free DMEM. Cells were incubated with anti-integrin alpha2 antibody control or 10-fold dilutions of each compound with a starting concentration of 10 uM for 15 minutes at 4° C. before plating. The plates were centrifuged at 10 g for 5 minutes before incubation for 1 hour at 37° C. in humidified 5% CO2. Nonadherent cells were removed by centrifugation (top side down) at 10 g for 5 minutes. Attached cells were stained with 0.5% crystal violet, and the wells were washed with PBS. The relative number of cells in each well was evaluated after solubilization in 40 μl of 2% Triton X-100 by measuring absorbance at 595 nm in a microplate reader. All determinations were carried out in triplicate.
integrin α2β1, sequence (P17301 30-1181): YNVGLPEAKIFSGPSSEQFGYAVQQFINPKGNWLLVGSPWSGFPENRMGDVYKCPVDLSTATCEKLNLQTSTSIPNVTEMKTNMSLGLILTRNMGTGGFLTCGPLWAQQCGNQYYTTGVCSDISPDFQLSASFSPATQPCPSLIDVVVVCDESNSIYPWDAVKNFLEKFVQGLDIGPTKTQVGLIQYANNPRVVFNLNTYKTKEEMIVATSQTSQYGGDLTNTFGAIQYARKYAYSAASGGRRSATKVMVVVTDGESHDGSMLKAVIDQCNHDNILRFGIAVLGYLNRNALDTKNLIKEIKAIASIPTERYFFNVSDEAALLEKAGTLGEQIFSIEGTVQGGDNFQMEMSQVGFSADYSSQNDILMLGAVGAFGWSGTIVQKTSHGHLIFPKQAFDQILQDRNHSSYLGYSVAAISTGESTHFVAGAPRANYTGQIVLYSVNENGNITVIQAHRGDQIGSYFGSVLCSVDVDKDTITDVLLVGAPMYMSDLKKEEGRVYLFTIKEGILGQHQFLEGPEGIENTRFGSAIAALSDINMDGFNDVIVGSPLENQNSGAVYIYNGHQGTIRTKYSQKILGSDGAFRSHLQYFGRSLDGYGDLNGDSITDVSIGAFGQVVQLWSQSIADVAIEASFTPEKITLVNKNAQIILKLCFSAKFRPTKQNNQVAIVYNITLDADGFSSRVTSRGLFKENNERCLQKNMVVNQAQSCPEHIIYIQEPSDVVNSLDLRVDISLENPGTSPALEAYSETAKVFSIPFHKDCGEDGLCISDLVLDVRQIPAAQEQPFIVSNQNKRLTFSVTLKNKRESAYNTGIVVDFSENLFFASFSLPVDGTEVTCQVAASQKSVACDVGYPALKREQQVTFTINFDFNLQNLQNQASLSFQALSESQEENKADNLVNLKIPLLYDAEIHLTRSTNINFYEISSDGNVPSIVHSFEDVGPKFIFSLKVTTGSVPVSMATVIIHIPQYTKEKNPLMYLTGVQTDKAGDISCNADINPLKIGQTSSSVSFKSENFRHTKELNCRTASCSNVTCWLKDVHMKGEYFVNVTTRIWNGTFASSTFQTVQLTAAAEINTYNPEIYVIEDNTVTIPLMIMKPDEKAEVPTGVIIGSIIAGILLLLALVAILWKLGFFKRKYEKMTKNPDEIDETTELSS
integrin α2β1, sequence (P05556 21-798): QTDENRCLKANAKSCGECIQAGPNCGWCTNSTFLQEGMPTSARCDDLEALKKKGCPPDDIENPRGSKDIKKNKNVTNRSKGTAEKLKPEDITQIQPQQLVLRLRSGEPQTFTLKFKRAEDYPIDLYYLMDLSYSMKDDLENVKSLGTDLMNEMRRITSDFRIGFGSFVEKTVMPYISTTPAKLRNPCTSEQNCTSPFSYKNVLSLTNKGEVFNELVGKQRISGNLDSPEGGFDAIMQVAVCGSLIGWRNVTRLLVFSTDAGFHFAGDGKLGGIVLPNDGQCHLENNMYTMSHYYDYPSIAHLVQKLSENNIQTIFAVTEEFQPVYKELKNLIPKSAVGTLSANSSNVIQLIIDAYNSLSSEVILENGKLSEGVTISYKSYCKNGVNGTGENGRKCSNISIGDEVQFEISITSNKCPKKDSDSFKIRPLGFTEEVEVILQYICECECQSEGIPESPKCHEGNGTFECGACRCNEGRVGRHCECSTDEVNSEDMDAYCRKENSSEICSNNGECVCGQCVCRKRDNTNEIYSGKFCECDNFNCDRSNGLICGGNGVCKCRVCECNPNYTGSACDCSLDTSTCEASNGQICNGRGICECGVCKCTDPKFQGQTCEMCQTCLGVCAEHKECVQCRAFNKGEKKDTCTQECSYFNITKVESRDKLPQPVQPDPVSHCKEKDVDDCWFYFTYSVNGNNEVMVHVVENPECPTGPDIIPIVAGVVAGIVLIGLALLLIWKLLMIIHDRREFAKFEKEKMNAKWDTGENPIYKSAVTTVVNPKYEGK
For the compound `O=C(CC1CCCCC1)N[C@@H](CNC(=O)NCc1ccccc1)C(=O)O` [A2-64, (S)-3-(3-benzylureido)-2-(2-cyclohexylacetamido)propanoic acid], the IC50 was greater than 100 µM.
Consider `COc1ccccc1CNC(=O)NC[C@H](NC(=O)c1c(Cl)cccc1Cl)C(=O)O` [KZ-1-14, (S)-2-(2,6-dichlorobenzamido)-3-(3-(2-methoxybenzyl)ureido)propanoic acid], for which the IC50 fell in the range of 10 to 100 µM.
The value for `O=C(NC[C@H](NC(=O)c1c(Cl)cccc1Cl)C(=O)O)NC12CC3CC(CC1C3)C2` [A2-145, (2S)-2-(2,6-dichlorobenzamido)-3-(3-(hexahydro-2,5-methanopentalen-3a(1H)-yl)ureido)propanoic acid] was 10 to 100 µM; that for `Cc1cccc(CNC(=O)NC[C@H](NC(=O)c2c(Cl)cccc2Cl)C(=O)O)c1` [KZ-1-16, (S)-2-(2,6-dichlorobenzamido)-3-(3-(3-methylbenzyl)ureido)propanoic acid] was 10 to 100 µM.
As for `O=C(NC[C@H](NC(=O)c1c(Cl)cccc1Cl)C(=O)O)NCC12CC3CC(CC(O)(C3)C1)C2` [A2-153], the figure is 10 to 100 µM; as for `O=C(NC[C@H](NC(=O)c1c(Cl)cccc1Cl)C(=O)O)NCC12CC3CC(CC(Cl)(C3)C1)C2` [A2-156, (S)-3-(3-((3-chloroadamantan-1-yl)methyl)ureido)-2-(2,6-dichlorobenzamido)propanoic acid], 10 to 100 µM.
The value for `CC1(C)C2CCC(CNC(=O)NC[C@H](NC(=O)c3c(Cl)cccc3Cl)C(=O)O)C1C2` (stereo partly shown) [A2-173] was 10 to 100 µM; that for `Cc1ccc(CNC(=O)NC[C@H](NC(=O)c2c(Cl)cccc2Cl)C(=O)O)cc1` [KZ-1-9, (S)-2-(2,6-dichlorobenzamido)-3-(3-(4-methylbenzyl)ureido)propanoic acid] was greater than 100 µM; that for `CN(C)C(=O)NC[C@H](NC(=O)c1c(Cl)cccc1Cl)C(=O)O` [A2-70, (S)-2-(2,6-dichlorobenzamido)-3-(3,3-dimethylureido)propanoic acid] was greater than 100 µM.
For the compound `COc1cccc(CNC(=O)NC[C@H](NC(=O)c2c(Cl)cccc2Cl)C(=O)O)c1` [KZ-1-15, (S)-2-(2,6-dichlorobenzamido)-3-(3-(3-methoxybenzyl)ureido)propanoic acid], the IC50 lay within 10 to 100 µM.
As for `O=C(NCCC1C2CC3CC(C2)CC1C3)NC[C@H](NC(=O)c1c(Cl)cccc1Cl)C(=O)O` (stereo partly shown) [A2-134], the figure is 10 to 100 µM.
Regarding `O=C(NC[C@H](NC(=O)c1c(Cl)cccc1Cl)C(=O)O)NC12CCC3CC(CC(C3)C1)C2` [A2-181, (25)-2-(2,6-dichlorobenzamido)-3-(3-(tricyclo[4.3.1.13,8]undecan-3-yl)ureido)propanoic acid], the IC50 fell in the range of 10 to 100 µM.
The value for `C[C@@H]1[C@H]2C[C@@H](C[C@H]1NC(=O)NC[C@H](NC(=O)c1c(Cl)cccc1Cl)C(=O)O)C2(C)C` [A2-170, (S)-2-(2,6-dichlorobenzamido)-3-(3-((1R,2R,3R,5S)-2,6,6-trimethylbicyclo[3.1.1]heptan-3-yl)ureido)propanoic acid] was 10 to 100 µM; that for `O=C(NC[C@H](NC(=O)c1c(Cl)cccc1Cl)C(=O)O)NC1CCC2(CCCCC2)CC1` [A2-179, (S)-2-(2,6-dichlorobenzamido)-3-(3-(spiro[5.5]undecan-3-yl)ureido)propanoic acid] was 10 to 100 µM.
Regarding `O=C(NC[C@H](NC(=O)c1c(Cl)cccc1Cl)C(=O)O)NC12CC3CC(CC(O)(C3)C1)C2` [A2-144, (S)-2-(2,6-dichlorobenzamido)-3-(3-(3-hydroxyadamantan-1-yl)ureido)propanoic acid], the IC50 lay within 10 to 100 µM.
As for `O=C(NC[C@H](NC(=O)c1c(Cl)cccc1Cl)C(=O)O)N[C@@H]1CCc2ccccc21` [A2-85, (S)-2-(2,6-dichlorobenzamido)-3-(3-((R)-2,3-dihydro-1H-inden-1-yl)ureido)propanoic acid], the figure is less than 10 µM.
As for `CC(C)CC(=O)N[C@@H](CNC(=O)NCc1ccccc1)C(=O)O` [A2-37, (S)-3-(3-benzylureido)-2-(3-methylbutanamido)propanoic acid], the IC50 was greater than 100 µM.
As for `O=C(NC[C@H](NC(=O)c1c(Cl)cccc1Cl)C(=O)O)NC1CCC2(CC1)C1CC3CC(C1)CC2C3` (stereo partly drawn) [A2-180, (S)-2-(2,6-dichlorobenzamido)-3-(3-(spiro[adamantane-2,1′-cyclohexan]-4′-yl)ureido)propanoic acid], the figure is 10 to 100 µM.
As for `Cc1cc(OC(C)C)cc(C)c1C(=O)N[C@@H](CNC(=O)NCc1ccccc1)C(=O)O` [A2-61, (S)-3-(3-benzylureido)-2-(4-isopropoxy-2,6-dimethylbenzamido)propanoic acid], the IC50 was 10 to 100 µM.
As to `O=C(NCCc1ccccc1)NC[C@H](NC(=O)c1c(Cl)cccc1Cl)C(=O)O` [KZ-1-11, (S)-2-(2,6-dichlorobenzamido)-3-(3-phenethylureido)propanoic acid], the IC50 was greater than 100 µM.
The value for `COc1cccc(OC)c1C(=O)N[C@@H](CNC(=O)NCc1ccccc1)C(=O)O` [A2-28, (S)-3-(3-benzylureido)-2-(2,6-dimethoxybenzamido)propanoic acid] was greater than 100 µM.
For the compound `O=C(NCc1ccco1)NC[C@H](NC(=O)c1c(Cl)cccc1Cl)C(=O)O` [KZ-1-17, (S)-2-(2,6-dichlorobenzamido)-3-(3-(furan-2-ylmethyl)ureido)propanoic acid], the IC50 was greater than 100 µM.
On to `CC(CC12CC3CC(CC(C3)C1)C2)NC(=O)NC[C@H](NC(=O)c1c(Cl)cccc1Cl)C(=O)O` (stereo partly drawn) [A2-155, (2S)-3-(3-(1-(adamantan-1-yl)propan-2-yl)ureido)-2-(2,6-dichlorobenzamido)propanoic acid], for which the IC50 fell in the range of 10 to 100 µM.
Turning to `O=C(NC[C@H](NC(=O)c1c(Cl)cccc1Cl)C(=O)O)NC1Cc2ccccc2C1` [A2-84, (S)-2-(2,6-dichlorobenzamido)-3-(3-(2,3-dihydro-1H-inden-2-yl)ureido)propanoic acid], the IC50 lay within 10 to 100 µM.
As for `O=C(NC[C@H](NC(=O)c1c(Cl)cccc1Cl)C(=O)O)Nc1ccccc1` [KZ-1-25, (S)-2-(2,6-dichlorobenzamido)-3-(3-phenylureido)propanoic acid], the figure is greater than 100 µM; as for `CC(NC(=O)NC[C@H](NC(=O)c1c(Cl)cccc1Cl)C(=O)O)C12CC3CC(CC(O)(C3)C1)C2` (stereo partly drawn) [A2-152, (2S)-2-(2,6-dichlorobenzamido)-3-(3-(1-(3-hydroxyadamantan-1-yl)ethyl)ureido)propanoic acid], 10 to 100 µM; as for `O=C(NC[C@H](NC(=O)c1c(Cl)cccc1Cl)C(=O)O)NC12CC3CC(C1)CC(C(F)(F)F)(C3)C2` [A2-131, (S)-2-(2,6-dichlorobenzamido)-3-(3-(3-(trifluoromethyl)adamantan-1-yl)ureido)propanoic acid], 10 to 100 µM.
As for `O=C(NC[C@H](NC(=O)c1c(Cl)cccc1Cl)C(=O)O)N[C@H]1CCCc2ccccc21` [A2-125, (S)-2-(2,6-dichlorobenzamido)-3-(3-((S)-1,2,3,4-tetrahydronaphthalen-1-yl)ureido)propanoic acid], the figure is less than 10 µM.
As for `O=C(NCc1ccccc1)NC[C@H](NC(=O)c1c(Cl)cncc1Cl)C(=O)O` [A2-29, (S)-3-(3-benzylureido)-2-(3,5-dichloroisonicotinamido)propanoic acid], the figure is less than 10 µM; as for `COc1cc(C)c(C(=O)N[C@@H](CNC(=O)NCc2ccccc2)C(=O)O)c(C)c1` [A2-60, (S)-3-(3-benzylureido)-2-(4-methoxy-2,6-dimethylbenzamido)propanoic acid], 10 to 100 µM; as for `CC(NC(=O)NCC(NC(=O)c1c(Cl)cccc1Cl)C(=O)O)C1CC2CCC1C2` [A2-176, (2S)-3-(3-(1-((1 S,4R)-bicyclo[2.2.1]heptan-2-yl)ethyl)ureido)-2-(2,6-dichlorobenzamido)propanoic acid], 10 to 100 µM.
As for `O=C(NCC1CCCCC1)NC[C@H](NC(=O)c1c(Cl)cccc1Cl)C(=O)O` [KZ-1-22, (S)-3-(3-(cyclohexylmethyl)ureido)-2-(2,6-dichlorobenzamido)propanoic acid], the IC50 was greater than 100 µM.
For `C[C@@H](NC(=O)NC[C@H](NC(=O)c1c(Cl)cccc1Cl)C(=O)O)c1ccccc1` [KZ-1-12, (S)-2-(2,6-dichlorobenzamido)-3-(3-((R)-1-phenylethyl)ureido)propanoic acid], the IC50 was in the range of 10 to 100 µM.
For the compound `COc1ccc(CNC(=O)NC[C@H](NC(=O)c2c(Cl)cccc2Cl)C(=O)O)cc1` [KZ-1-20, (S)-2-(2,6-dichlorobenzamido)-3-(3-(4-methoxybenzyl)ureido)propanoic acid], the IC50 is greater than 100 µM.
In the case of `O=C(NC[C@H](NC(=O)c1c(Cl)cccc1Cl)C(=O)O)NC1CC2CCC1C2` (stereo partly drawn) [A2-172, (2S)-3-(3-(bicyclo[2.2.1]heptan-2-yl)ureido)-2-(2,6-dichlorobenzamido)propanoic acid], the IC50 is less than 10 µM.
As for `O=C(NC[C@H](NC(=O)c1c(Cl)cccc1Cl)C(=O)O)OCc1ccccc1` [A2-72, (S)-3-(((benzyloxy)carbonyl)amino)-2-(2,6-dichlorobenzamido)propanoic acid], the figure is greater than 100 µM; as for `O=C(NCc1ccsc1)NC[C@H](NC(=O)c1c(Cl)cccc1Cl)C(=O)O` [KZ-1-38, (S)-2-(2,6-dichlorobenzamido)-3-(3-(thiophen-3-ylmethyl)ureido)propanoic acid], 10 to 100 µM.
